# Laboratory results published in PubChem BioAssay AID179 (DTP/NCI, 2004).
# pEC50, pIC50: −log10 of the molar value. Calls of active or inactive are those of the source.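 Rule for the calls: active = compounds giving half or more protection of infected cells from virus-caused growth loss, again on retest; inactive = the rest.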 Where a SMILES comes first, the peptide text is derived from it. The star is where a group is joined. ONb = O=[N+]([O-])c1ccc(CO*)cc1; Cbz = O=C(OCc1ccccc1)*
# Tested on: CEM cells HIV-1 protection, formazan growth assay
# Test: NCI AIDS Antiviral Assay
# Conditions: for pIC50: measured here: growth of uninfected CEM cells
# Outline: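 Category rules: moderately active means at least 50% protection on retest, and confirmed active means 100% protection reproducibly. The underlying data came from a formazan growth assay in HIV-1-infected CEM cells.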
Structure (SMILES),pEC50,pIC50,outcome
Cc1cc(=O)[nH]c(CNC(=O)c2cccc(C(=O)NCc3cc(=O)[nH]c(C)n3)c2)n1,< 3.21,< 3.21,
O=C1NC(=O)C2(CCN(Cc3ccccc3)CC2)N1c1ccccc1,< 3.70,< 3.70,
O=C1Nc2ccc(Cl)cc2C(c2ccccc2Cl)=NC1O (configuration not stated),,,inactive
COc1ccc2nc3cc(Cl)ccc3c(Sc3ccc(N)cc3)c2c1,< 4.85,5.48,
COc1cc(OC)cc(C2=NNc3n[nH]c(=S)n3N2)c1,< 3.91,< 3.91,
CC(=O)CC(C)=O.CC(=O)CC(C)=O.[O]=[V],,,inactive
CC(=O)NC(CS)C(=O)NC(CO)C(=O)NC(CO)C(=O)NC(Cc1c[nH]c2ccccc12)C(=O)N1CCCC1C(=O)NC(CO)C(=O)NC(Cc1c[nH]c2ccccc12)C(=O)NC(Cc1c[nH]cn1)C(=O)NC(CO)C(=O)NC(Cc1c[nH]c2ccccc12)C(=O)NCC(=O)NCC(=O)NC(CC(=O)O)C(=O)NC(CCC(N)=O)C(=O)NC(CCCCN)C(=O)NC(Cc1ccccc1)C(=O)NC(CCCNC(=N)N)C(=O)NC(CCCCN)C(N)=O (configuration not stated) (Ac-CSSWPSWHSWGGDQKFRK-NH2; configuration not given here),< 4.70,< 4.70,
COc1ccc2nc3ccccc3c(NCCN(C)CCCl)c2c1,< 4.70,5.88,
Cc1ccc(Cc2c(=O)[nH]nc3ccccc23)cc1,< 4.40,< 4.40,
Clc1ccccc1C[P+](c1ccccc1)(c1ccccc1)c1ccccc1,< 3.70,5.34,
O=c1[nH]c2c(c3ccccc13)CCc1ccccc1-2,,,inactive
O=S1C=C(C2=COCCC2)OC1 (configuration not stated),< 3.71,< 3.71,
COc1ccc(N2C(=O)CSC2c2c[nH]c3ccccc23)cc1 (configuration not stated),< 4.65,< 4.65,
N#Cc1c(N)n(-c2cccc(C(=O)O)c2)c(=O)c2cc([N+](=O)[O-])ccc12,< 3.70,< 3.70,
CO[C@H](c1ccccc1)[C@H](C)N(C)c1ccc2ccccc2c1C1=NC(C)(C)CO1,< 4.19,< 4.19,
C/C(=N/NC(=S)N1CCCCC1)c1ccccc1O,< 3.70,4.04,
OCCN1CCN(CCCN2c3ccccc3Sc3ccc(C(F)(F)F)cc32)CC1,< 3.70,4.99,
O=C(N1CCCCC(Cl)(Cl)C1=O)C(Cl)(Cl)Cl,< 3.12,< 3.12,
COc1c(-c2ccc3c(c2)OCO3)oc2cc3c(c(OC)c2c1=O)OCO3,< 3.70,< 3.70,
COc1ccc(C(=O)CCC(NC(C)=O)C(=O)O)cc1 (configuration not stated),< 4.00,< 4.00,
CC(=O)Nc1ccc(-c2nnc(SCC(=O)Nc3cccc(Cl)c3)o2)cc1,< 4.33,5.12,
O=C1NCC(c2ccccc2)(c2ccccc2)O1,< 3.70,3.82,

Structure (SMILES),pEC50,pIC50,outcome
Oc1ccc(C2Oc3cc(OC4OCC(O)C(O)C4O)cc(O)c3CC2O)cc1O (configuration not stated),< 3.70,< 3.70,
Cn1c2ccccc2c(=O)c2[nH]c3ccccc3c21,< 3.70,4.44,
Nc1ccn(C2OC(CO)C(O)C2O)c(=O)n1 (configuration not stated),< 5.70,8.56,
CC(C)(C)OC(=O)NCC(=O)NC1c2ccsc2/C(=N/O)[C@H]1O (some centres not stated),< 3.70,< 3.70,
CCc1ccccc1NNc1cc(=O)[nH]c(=O)[nH]1,< 3.70,4.56,
COc1cc(C(C)O)c[n+](CCc2c[nH]c3ccccc23)c1 (configuration not stated),< 3.63,< 3.63,
C[C@]12CC[C@H](OC(=O)/C=C\c3cccc(N(CCCl)CCCl)c3)CC1CC[C@@H]1C2CC[C@]2(C)NC(=O)CCC12 (some centres not stated),,,inactive
O=C1NC(=S)N/C1=C\c1ccc(Br)s1,< 3.70,3.95,
O=C1c2cc(Cc3ccccc3)c(=O)c(Cc3ccccc3)cc2C(=O)c2cc(Cc3ccccc3)c(=O)c(Cc3ccccc3)cc21,< 3.70,< 3.70,
O=c1c(SCc2ccc(Cl)cc2)c(N2CCOCC2)cnn1-c1ccccc1,< 4.20,4.35,
O=C1Nc2ccccc2/C1=N/N1CCCCCC1,< 3.70,4.01,
O=c1c(SCc2ccccc2)c(N2CCOCC2)cnn1-c1ccccc1,< 3.18,3.24,
O=C(N/C(=C\c1ccccc1)c1nc2ccccc2c(=O)o1)c1ccccc1,< 3.70,< 3.70,
Nc1ccccc1C(=O)N=Nc1c(O)[nH]c2ccccc12,< 3.70,< 3.70,
Cc1cc2c(=O)cc(-c3ccncc3)oc2c(C(N)=O)c1C,< 3.82,4.15,
O=C1/C(=C/c2ccccc2)CC/C1=C\c1ccccc1,,,inactive
CCCCCc1cc(O)cc2c1Oc1cc(O)cc(C(=O)CCCC)c1C(=O)O2,< 4.25,4.55,
Cc1cn(C2CC(O[Si](C)(C)C(C)(C)C)C(C/[N+]([O-])=N\Nc3ccc([N+](=O)[O-])cc3)O2)c(=O)[nH]c1=O (configuration not stated),< 3.70,5.48,
CC(C)N1CN(C(C(=O)N[C@@H]2C(=O)N3C2SC(C)(C)C3C(=O)O)c2ccccc2)CSC1=S (some centres not stated),< 3.59,3.81,
COc1cc(C(c2c(O)c3ccccc3oc2=O)N2CCCC2)cc(OC)c1OC (configuration not stated),< 3.70,3.97,
Cc1cccc2c1CC1(Cc3ccccc3C1=O)C2=O (configuration not stated),< 3.70,< 3.70,
O=C(Nc1nccs1)c1c(O)nc2sccn2c1=O,< 3.70,< 3.70,

Structure (SMILES),pEC50,pIC50,outcome
COc1cccc(C=O)c1[O-].COc1cccc(C=O)c1[O-].[Co+2],< 3.73,4.55,
CCOc1ccccc1NC(=O)C(=O)C(C(=O)c1ccc2ccccc2c1)C1OC(=O)c2ccccc21 (configuration not stated),< 4.14,4.50,
CCCCCCCCCCCCCCCCOC1OC(CO)C(O)C(O)C1O (configuration not stated),< 5.03,< 5.03,
CC12Cc3ccccc3CC1OCN1CN2COC2Cc3ccccc3CC21C (configuration not stated),< 4.88,< 4.88,
C1CN(P(N2CCOCC2)N2CCOCC2)CCO1,< 3.06,< 3.06,
COc1ccc(NCC(=O)Nn2c(C)nc3ccc(S(=O)(=O)Nc4ccc(OC)cc4)cc3c2=O)cc1,< 4.00,< 4.00,
ClC1=C(Cl)C(Cl)(Cl)SS1,< 3.70,4.48,
CCOC(=O)C1(C/C=C/CBr)CCc2ccccc2C1=O (configuration not stated),< 3.70,5.67,
O=C1Nc2ccccc2Cn2c1cc1oc(-c3ccccc3)cc12,< 3.70,3.72,
CC1Cn2c(nc3ccccc32)NC1=O (configuration not stated),< 3.70,< 3.70,
Cc1c(/C=N/NC(=S)Nc2ccc([N+](=O)[O-])cc2)c(=O)n(-c2ccccc2)n1C,< 3.70,3.78,
O[C@H]1C=CC[C@H]2C(F)(F)[C@](F)(Cl)[C@@]12Cl,< 3.00,3.73,
Cc1cc(O)c(C=O)c2c1C(=O)Oc1c(C)c(O)c(C(=O)O)c(C)c1O2,< 3.70,3.73,
COc1ccc(/C(C)=N\NS(=O)(=O)c2ccc(NC(C)=O)cc2)cc1,< 3.74,< 3.74,
CCN(C(=O)c1ccccc1C)C(c1ccccc1)P(=O)(c1ccccc1)c1ccccc1 (configuration not stated),,,inactive
CC(Oc1ccc2c(=O)cc(-c3ccccc3)oc2c1)C(=O)O (configuration not stated),,,inactive
O=C(O)/C=C\CCCCC(=O)O,< 2.84,< 2.84,
O=C1C=CC(=CC=C2C=CN(CCCCCCCCCCC(=O)NCCCCCCCCCCCC(=O)O)C=C2)C=C1,,,inactive
COC(=O)C1=CC2OC1(C)CCC2=O (configuration not stated),,,inactive
O=c1[nH]n(Cc2ccccc2CCl)c2ccc([N+](=O)[O-])cc12,< 3.70,4.42,
CC(C)CC(NC(=O)C(Cc1cnc[nH]1)NC(=O)C(Cc1ccccc1)NC(=O)C1CCCN1C(=O)OCc1ccccc1)C(=O)NC(CC(C)C)C(=O)NC(C(=O)NC(Cc1ccc(O)cc1)C(=O)NC(CO)C(=O)OCc1ccc([N+](=O)[O-])cc1)C(C)C (configuration not stated) (Cbz-PFHLLVYS-ONb; configuration not given here),< 4.96,< 4.96,
CCOc1ccccc1NC(=O)CCc1nc(=S)[nH][nH]1,< 3.07,3.50,

Structure (SMILES),pEC50,pIC50,outcome
O=c1[nH]nc(-c2ccc3ccccc3c2)[nH]1,3.87,< 3.70,
Cc1cc2c(cc1C)Nc1oc3ccc4ccccc4c3c(=O)c1C=N2,< 3.70,< 3.70,
CCOC(=O)C(=O)C1C(=O)N(C)C2(C)CC1c1ccccc1O2 (configuration not stated),< 3.70,< 3.70,
COc1ccc(N2C(=O)C(N3C(=O)C=CC3=O)C2C=O)cc1 (configuration not stated),< 3.78,< 3.78,
COc1cc([N+](=O)[O-])c(S(=O)(=O)O)cc1NS(=O)(=O)c1ccc(C)cc1,< 3.70,< 3.70,
CN(C)CCSC(=Nc1ccccc1)n1cccc1,< 4.58,< 4.58,
COc1cc(OC)c(CSCC(NC(=O)OCC2c3ccccc3-c3ccccc32)C(=O)O)c(OC)c1 (configuration not stated),< 3.70,3.98,
CC(SCCCCCCCCCCCCSC(C)C(=O)O)C(=O)O (configuration not stated),< 4.10,< 4.10,
O=C(O)CNS(=O)(=O)c1ccc(NCc2ccccc2)cc1,,,inactive
C=CC1(c2ccc3ccccc3c2)OCC(CC)(CC)CO1,< 3.70,4.10,
CCCCCCCCCCCCNC1(C)CNCCCNCCNCCCNC1,< 3.60,5.85,
C=CCNC(=O)ON1C(=O)CCC1=O,< 2.90,< 2.90,
O=c1[nH]c(=O)c2c3n(cc2[nH]1)CCCCC3,< 3.70,< 3.70,
Cc1nc2cc(Cl)cc(N)c2nc1C,< 3.20,3.53,
COc1cc(/C=C2\C=Cc3ccccc32)cc(OC)c1OC,< 4.61,< 4.61,
CCCCOP(=O)(OCCCC)/C(C#N)=C/c1ccc(C)o1,< 3.70,3.99,
O=C(NCCCCCCNC(=O)c1ccccn1)c1ccccn1,< 3.70,3.72,
CSc1nc(Cl)c2c(n1)Sc1nc3cc4c(cc3n1C2O)OCO4 (configuration not stated),< 4.00,6.28,
CCOC(=O)C(=[N+]=[N-])C(=O)Nc1nn2nnnc2c2ccccc12,< 3.70,< 3.70,
O=C(N=c1nc2ccccn2s1)c1ccccc1,< 4.27,< 4.27,
